pIC50: −log10 of the molar value.
Experiments:
COLO 205 cells = assay: MTS cytotoxicity test with COLO 205 cells; type: cell-based, human; settings: Homo sapiens, COLO 205, 72 h, 3 days
Method: The assay, which is sold in kit form by Promega (Madison, Wis.; CellTiter 96 AQueous Non-Radioactive Cell Proliferation Assay), is based on the conversion by viable cells, but not by dead cells, of the tetrazolium salt, MTS (3-(4,5-dimethylthiazol-2-yl)-5-(3-carboxymethoxyphenyl)-2-(4-sulphophenyl)-2H-tetrazolium, inner salt), into a water-soluble colored formazan which is detected by spectrophotometry. Compounds are tested at nine concentrations, in order to determine IC50 values. For the test procedure, cells are harvested by trypsinization (or, in the case of non-adherent cells, by simple resuspension), washed, counted and distributed to wells of 96-well flat-bottom microtiter plates at 1000 cells per well in 200 μL of medium. In addition, one row of wells on a separate plate received cells as above (“time 0” plate). All plates are incubated at 37° in humidified 5% CO2 in air for about 24 hr.
On day 2, compounds for test are diluted and added to wells. Compounds are dissolved in DMSO at 10 mg/mL. For each compound, nine serial 2-fold dilutions are prepared in DMSO. Ten μL of each dilution in DMSO is transferred to 100 μL of medium, mixed well, and then 5 μL of this dilution is transferred in quadruplicate to wells containing cells. The final high concentration of each compound is typically 5 μM. Plates are returned to the incubator for three days. At the time of drug addition to the experimental plates, the MTS assay is run on the “time 0” plate. This produced the “time 0 MTS value” which is related to the number of viable cells per well at the time of drug addition.
After three days of culture with test compounds (day 5 overall), the MTS assay is done on all wells of the experimental plates. The absorbance values of the quadruplicate sample wells are averaged and divided by the average of the “time 0” values. The average of control wells without drug, divided by the average “time 0” value, gave the maximal relative increase in MTS color yield due to cell growth during the final three days of culture. The average of control wells with high drug concentration, divided by the “time 0” value, gave the minimal relative color yield for cells that are completely killed. The nine values for each compound are plotted against concentration, and the concentration that produced a relative color yield half way between the maximum and minimum is taken as the IC50 value.
COLO 205 is a human colon carcinoma cell line that is used for comparative testing of the examples of this invention and several reference compounds. This line is sensitive to paclitaxel and vincristine.

MAP-rich tubulin = assay: Tubulin polymerization test with MAP-rich tubulin; type: biochemical, bovine; settings: 0.3 μM compound, 20 min, fold enhancement over control
Method: Medium is RPMI-1640 with L-glutamine, supplemented with 10% heat-inactivated fetal calf serum, 100 units/ml penicillin, and 100 μg/ml streptomycin (Gibco, Grand Island, N.Y.). Microtubule-associated protein (MAP)-rich tubulin, containing about 70% tubulin and 30% MAPs (#ML113), and highly purified tubulin (>99% pure, #TL238), both from bovine brain, are obtained from Cytoskeleton, Inc., Denver, Colo. PEM buffer (80 mM piperazine-N,N′-bis[2-ethanesulfonic acid], pH 6.9, 1 mM ethylene glycol-bis(β-aminoethyl ether)-N,N,N′,N′-tetraacetic acid, 1 mM magnesium chloride) and guanosine 5′-triphosphate (GTP) are also obtained from Cytoskeleton. [3H]paclitaxel, specific activity 14.7 Ci/mmol, is purchased from Moravek Biochemicals (Brea, Calif.). [^3H]vinblastine, specific activity 9.60 Ci/mmol and MicroSpin G-50 columns are obtained from Amersham Biosciences (Piscataway, N.J.). […] Other reagents are obtained from Sigma (St. Louis, Mo.).
Two variations of this procedure are done, one using MAP-rich tubulin and one using pure tubulin.
MAP-rich tubulin is dissolved in ice-cold PEM buffer containing 1 mM GTP (GPEM buffer) at a concentration of 1.3 mg/mL. The solution is centrifuged at top speed in an Eppendorf model 5415C microcentrifuge (Brinkmann Instruments, Westbury, N.Y.) for 10 min at […] immediately before use. The tubulin solution is added to wells of a ½-area 96-well plate (Costar No. 3696, Corning, Inc., Corning, N.Y.) already containing the compounds of interest. Each compound is tested in duplicate at a final concentration of 0.3 μM in a volume of 110 μL per well. The final DMSO concentration in all wells is 0.3%. Control reactions, which received compound solvent only, are done in quadruplicate. The plate is put in a SpectraMax Plus plate reader (Molecular Devices Corp. Sunnyvale, Calif.) thermostated at 24° and the absorbance of each well at 340 nm, a measure of the appearance of turbidity due to tubulin polymer formation, is determined every minute for 60 minutes. The absorbance at time 0 for each well is subtracted from each of the subsequent absorbance readings for that well, and then the duplicates are averaged.
In this assay, control reactions with MAP-rich tubulin show an S-shaped absorbance profile characterized by three phases: first, a lag phase during which no change in absorbance occurs; second, a polymerization phase in which absorbance increases; and third, a plateau phase in which absorbance has reached a maximum and little or no further change occurs. Polymerization enhancers such as paclitaxel and docetaxel shorten or eliminate the lag phase, increase the rate of the polymerization phase, and often increase the height of the plateau. […] The compounds of this invention have a taxane-like effect on the polymerization reaction. This has been expressed quantitatively in Table 5 by dividing the mean A340 of each sample at 20 min by the mean A340 of the control at 20 min to give a fold enhancement over control. […] Examples of this invention have factors ranging up to 8.1, with the majority in the 5 to 6-fold range.

| Structure (SMILES) | pIC50 (COLO 205 cells) | A340 Compound/A340 Control (MAP-rich tubulin) |
| --- | --- | --- |
| CNCCCOc1cc(F)c(-c2c(Cl)nc3ncnn3c2NCC(F)(F)F)c(F)c1 [Example 3, 5-Chloro-6-{2,6-difluoro-4-[3-(methylamino)propoxy]phenyl}-N-(2,2,2-trifluoroethyl)[1,2,4]triazolo[1,5-a]pyrimidin-7-amine] | 7.60 | 6.7 |
| C[C@H](Nc1c(-c2c(F)cc(OCCCN3CCN(C)CC3)cc2F)c(Cl)nc2ncnn12)C(F)(F)F [Example 6, 5-Chloro-6-{2,6-difluoro-4-[3-(4-methylpiperazin-1-yl)propoxy]phenyl}-N-[(1S)-2,2,2-trifluoro-1-methylethyl][1,2,4]triazolo[1,5-a]pyrimidin-7-amine] | 6.81 | 6.7 |
| CCNCCCOc1cc(F)c(-c2c(Cl)nc3ncnn3c2N[C@@H](C)C(F)(F)F)c(F)c1 [Example 7, 5-Chloro-6-{4-[3-(ethylamino)propoxy]-2,6-difluorophenyl}-N-[(1S)-2,2,2-trifluoro-1-methylethyl][1,2,4]triazolo[1,5-a]pyrimidin-7-amine] | 7.54 | 6.4 |
| CCN(C)CCCOc1cc(F)c(-c2c(Cl)nc3ncnn3c2N[C@@H](C)C(F)(F)F)c(F)c1 [Example 8, 5-Chloro-6-(4-{3-[ethyl(methyl)amino]propoxy}-2,6-difluorophenyl)-N-[(1S)-2,2,2-trifluoro-1-methylethyl][1,2,4]triazolo[1,5-a]pyrimidin-7-amine] | 7.32 | 6.2 |
| C[C@H](Nc1c(-c2c(F)cc(OCCCN3CCCCC3)cc2F)c(Cl)nc2ncnn12)C(F)(F)F [Example 10, 5-Chloro-6-[2,6-difluoro-4-(3-piperidin-1-ylpropoxy)phenyl]-N-[(1S)-2,2,2-trifluoro-1-methylethyl][1,2,4]triazolo[1,5-a]pyrimidin-7-amine] | 6.95 | 6.3 |
| C[C@H](Nc1c(-c2c(F)cc(OCCCN3CCC3)cc2F)c(Cl)nc2ncnn12)C(F)(F)F [Example 12, 6-[4-(3-Azetidin-1-ylpropoxy)-2,6-difluorophenyl]-5-chloro-N-[(1S)-2,2,2-trifluoro-1-methylethyl][1,2,4]triazolo[1,5-a]pyrimidin-7-amine] | 6.49 | 2.9 |
| C[C@H](Nc1c(-c2ccc(OCCCN(C)C)cc2F)c(Cl)nc2ncnn12)C(F)(F)F [Example 13, 5-Chloro-6-{4-[3-(dimethylamino)propoxy]-2-fluorophenyl}-N-[(1S)-2,2,2-trifluoro-1-methylethyl][1,2,4]triazolo[1,5-a]pyrimidin-7-amine] | 6.58 | 5.4 |
| CNCCOc1cc(F)c(-c2c(Cl)nc3ncnn3c2N[C@@H](C)C(F)(F)F)c(F)c1 [Example 14, 5-Chloro-6-{2,6-difluoro-4-[2-(methylamino)ethoxy]phenyl}-N-[(1S)-2,2,2-trifluoro-1-methylethyl][1,2,4]triazolo[1,5-a]pyrimidin-7-amine] | 6.06 | 1.5 |
| C[C@H](Nc1c(-c2c(F)cc(OCCCCN(C)C)cc2F)c(Cl)nc2ncnn12)C(F)(F)F [Example 15, 5-Chloro-6-{4-[4-(dimethylamino)butoxy]-2,6-difluorophenyl}-N-[(1S)-2,2,2-trifluoro-1-methylethyl][1,2,4]triazolo[1,5-a]pyrimidin-7-amine] | 6.56 | 5.5 |
| C[C@H](Nc1c(-c2c(F)cc(OCCN(C)C)cc2F)c(Cl)nc2ncnn12)C(F)(F)F [Example 16, 5-Chloro-6-{4-[2-(dimethylamino)ethoxy]-2,6-difluorophenyl}-N-[(1S)-2,2,2-trifluoro-1-methylethyl][1,2,4]triazolo[1,5-a]pyrimidin-7-amine] | 6.24 | 2.4 |
| C[C@H](Nc1c(-c2c(F)cc(OCCN3CCOCC3)cc2F)c(Cl)nc2ncnn12)C(F)(F)F [Example 17, 5-Chloro-6-[2,6-difluoro-4-(2-morpholin-4-ylethoxy)phenyl]-N-[(1S)-2,2,2-trifluoro-1-methylethyl][1,2,4]triazolo[1,5-a]pyrimidin-7-amine] | 6.61 | 4.8 |
| C[C@H](Nc1c(-c2c(F)cc(SCCCN(C)C)cc2F)c(Cl)nc2ncnn12)C(F)(F)F [Example 18, 5-Chloro-6-(4-{[3-(dimethylamino)propyl]thio}-2,6-difluorophenyl)-N-[(1S)-2,2,2-trifluoro-1-methylethyl][1,2,4]triazolo[1,5-a]pyrimidin-7-amine] | 6.72 | 5.8 |
| C[C@H](Nc1c(-c2c(F)cc(N(C)CCCN(C)C)cc2F)c(Cl)nc2ncnn12)C(F)(F)F [Example 22, N^1-[4-(5-Chloro-7-{[(1S)-2,2,2-trifluoro-1-methylethyl]amino}[1,2,4]triazolo[1,5-a]pyrimidin-6-yl)-3,5-difluorophenyl]-N′,N^3,N^3-trimethylpropane-1,3-diamine] | 5.78 | 1.2 |
| C[C@H](Nc1c(-c2c(F)cc(NCCCN(C)C)cc2F)c(Cl)nc2ncnn12)C(F)(F)F [Example 23, N^1-[4-(5-Chloro-7-{[(1S)-2,2,2-trifluoro-1-methylethyl]amino}[1,2,4]triazolo[1,5-a]pyrimidin-6-yl)-3,5-difluorophenyl]-N^3,N^3-dimethylpropane-1,3-diamine] | 6.14 | 4.2 |
| C[C@H](Nc1c(-c2c(F)cc(NCCN(C)C)cc2F)c(Cl)nc2ncnn12)C(F)(F)F [Example 24, N^1-[4-(5-Chloro-7-{[(1S)-2,2,2-trifluoro-1-methylethyl]amino}[1,2,4]triazolo[1,5-a]pyrimidin-6-yl)-3,5-difluorophenyl]-N^2,N^2-dimethylethane-1,2-diamine] | 5.76 | 1.2 |
| C[C@H](Nc1c(-c2c(F)cc(CCCCN(C)C)cc2F)c(Cl)nc2ncnn12)C(F)(F)F [Example 26, 5-Chloro-6-{4-[4-(dimethylamino)butyl]-2,6-difluorophenyl}-N-[(1S)-2,2,2-trifluoro-1-methylethyl][1,2,4]triazolo[1,5-a]pyrimidin-7-amine] | 6.18 | 4.6 |
